ChEMBL document CHEMBL4414590, “Discovery of SIAIS178 as an Effective BCR-ABL Degrader by Recruiting Von Hippel-Lindau (VHL) E3 Ubiquitin Ligase” (J Med Chem, 2019)
Activity calls are given as the source filed them. The rule behind the calls is not given here.

Legend:
[1] = molecular target: Tyrosine-protein kinase ABL1 (Homo sapiens) (UniProt P00519); assay: Binding affinity to human phosphorylated ABL1 (S229 to K512 residues) expressed in mammalian expression system assessed as residual binding level at 10 uM by Kinomescan method relative to control
[2] = molecular target: T1, Bcr/Abl fusion protein (Homo sapiens) (UniProt P00519+P11274); assay: Inhibition of BCR-ABL in human KU812 cells assessed as reduction in STAT5 phosphorylation at 1 to 30 nM by Western blot analysis; assay type: cell-based
T1 sequence (P00519 whole entry, looked up, the tested form may be a part): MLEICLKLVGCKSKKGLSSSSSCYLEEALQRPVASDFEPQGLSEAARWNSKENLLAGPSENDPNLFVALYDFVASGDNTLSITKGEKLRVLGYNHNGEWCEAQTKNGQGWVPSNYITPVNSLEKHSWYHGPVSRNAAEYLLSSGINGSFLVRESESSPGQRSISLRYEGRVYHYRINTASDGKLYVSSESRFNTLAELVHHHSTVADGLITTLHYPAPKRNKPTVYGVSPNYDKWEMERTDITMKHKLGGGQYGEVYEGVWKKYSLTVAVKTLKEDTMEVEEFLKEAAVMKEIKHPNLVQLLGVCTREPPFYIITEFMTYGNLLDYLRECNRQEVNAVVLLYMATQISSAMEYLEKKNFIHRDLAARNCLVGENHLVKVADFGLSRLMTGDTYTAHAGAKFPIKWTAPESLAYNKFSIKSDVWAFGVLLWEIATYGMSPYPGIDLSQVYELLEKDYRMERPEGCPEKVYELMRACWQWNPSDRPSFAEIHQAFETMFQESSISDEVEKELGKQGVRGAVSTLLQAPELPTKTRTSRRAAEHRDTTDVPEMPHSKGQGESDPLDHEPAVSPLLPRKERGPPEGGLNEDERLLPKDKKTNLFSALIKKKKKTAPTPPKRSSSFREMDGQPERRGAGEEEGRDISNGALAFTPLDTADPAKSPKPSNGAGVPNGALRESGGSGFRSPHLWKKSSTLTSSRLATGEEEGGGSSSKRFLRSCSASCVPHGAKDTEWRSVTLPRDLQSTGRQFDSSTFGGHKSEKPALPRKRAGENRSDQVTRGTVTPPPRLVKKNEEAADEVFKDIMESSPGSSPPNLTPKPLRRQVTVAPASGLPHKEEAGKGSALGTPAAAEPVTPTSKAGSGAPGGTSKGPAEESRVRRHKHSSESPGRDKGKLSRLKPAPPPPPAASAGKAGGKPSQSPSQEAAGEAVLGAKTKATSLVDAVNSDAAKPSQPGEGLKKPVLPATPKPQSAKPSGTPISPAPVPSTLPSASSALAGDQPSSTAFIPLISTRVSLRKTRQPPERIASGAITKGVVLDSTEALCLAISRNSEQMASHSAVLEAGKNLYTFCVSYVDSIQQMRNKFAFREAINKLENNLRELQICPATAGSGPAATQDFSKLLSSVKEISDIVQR
T1 sequence (P11274 whole entry, looked up, the tested form may be a part): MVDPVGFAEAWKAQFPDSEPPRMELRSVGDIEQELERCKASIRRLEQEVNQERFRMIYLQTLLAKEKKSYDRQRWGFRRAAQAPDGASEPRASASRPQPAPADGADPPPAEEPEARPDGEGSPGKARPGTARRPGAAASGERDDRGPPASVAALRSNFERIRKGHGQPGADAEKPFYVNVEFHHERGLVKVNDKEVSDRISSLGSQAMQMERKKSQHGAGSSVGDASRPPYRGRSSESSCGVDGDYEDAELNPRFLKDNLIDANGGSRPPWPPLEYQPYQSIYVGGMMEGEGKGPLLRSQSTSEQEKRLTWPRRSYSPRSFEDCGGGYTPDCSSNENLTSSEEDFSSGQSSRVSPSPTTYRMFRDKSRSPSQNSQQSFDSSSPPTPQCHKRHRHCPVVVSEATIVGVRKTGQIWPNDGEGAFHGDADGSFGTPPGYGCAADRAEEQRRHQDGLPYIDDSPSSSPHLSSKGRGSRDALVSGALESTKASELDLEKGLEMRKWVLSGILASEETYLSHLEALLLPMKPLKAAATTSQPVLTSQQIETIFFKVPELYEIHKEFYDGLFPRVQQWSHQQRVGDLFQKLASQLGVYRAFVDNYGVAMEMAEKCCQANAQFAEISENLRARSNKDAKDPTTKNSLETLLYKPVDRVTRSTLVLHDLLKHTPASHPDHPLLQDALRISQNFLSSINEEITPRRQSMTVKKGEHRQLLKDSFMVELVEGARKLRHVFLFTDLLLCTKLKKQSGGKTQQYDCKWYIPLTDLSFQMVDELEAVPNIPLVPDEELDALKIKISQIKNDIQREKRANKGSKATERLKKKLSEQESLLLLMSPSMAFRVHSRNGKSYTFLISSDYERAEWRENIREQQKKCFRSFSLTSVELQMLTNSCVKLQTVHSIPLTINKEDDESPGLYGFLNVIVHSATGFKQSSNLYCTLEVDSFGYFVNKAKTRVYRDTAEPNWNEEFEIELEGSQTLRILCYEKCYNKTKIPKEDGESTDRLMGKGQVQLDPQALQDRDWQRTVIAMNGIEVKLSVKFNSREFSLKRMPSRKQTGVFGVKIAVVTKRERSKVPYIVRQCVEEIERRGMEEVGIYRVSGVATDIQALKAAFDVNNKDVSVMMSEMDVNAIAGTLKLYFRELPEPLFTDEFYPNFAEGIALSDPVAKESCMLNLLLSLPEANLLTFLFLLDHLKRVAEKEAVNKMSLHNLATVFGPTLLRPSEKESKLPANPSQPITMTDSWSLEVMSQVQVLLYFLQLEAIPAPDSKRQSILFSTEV

[3] = molecular target: T2, von Hippel-Lindau disease tumor suppressor/Tyrosine-protein kinase ABL1/Breakpoint cluster region protein (Homo sapiens, UniProt P00519+P11274+P40337); assay: Induction of ternary complex formation between VHL and BCR-ABL (unknown origin) expressed in HEK293 cells expressing N-terminal BCR-ABL LgBit fusion protein and N-terminal SmBit-VHL fusion protein pre-treated with 10 uM dasatinib for 2 hrs followed by compound addition at 1 uM and further incubated for 1 hr by NanoBit technology based luciferase complementation assay; assay type: cell-based
T2 sequence (P00519 whole entry, looked up, the tested form may be a part): as the sequence (P00519 whole entry, looked up, the tested form may be a part) above
T2 sequence (P11274 whole entry, looked up, the tested form may be a part): as the sequence (P11274 whole entry, looked up, the tested form may be a part) above
T2 sequence (P40337 whole entry, looked up, the tested form may be a part): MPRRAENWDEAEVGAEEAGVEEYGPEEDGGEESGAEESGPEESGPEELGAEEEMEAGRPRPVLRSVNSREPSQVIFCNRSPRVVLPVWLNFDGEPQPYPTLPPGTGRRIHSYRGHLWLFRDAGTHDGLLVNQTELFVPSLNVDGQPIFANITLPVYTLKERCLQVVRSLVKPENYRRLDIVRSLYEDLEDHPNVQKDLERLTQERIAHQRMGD

[4] = molecular target: T2, von Hippel-Lindau disease tumor suppressor/Tyrosine-protein kinase ABL1/Breakpoint cluster region protein; assay: Protac activity against VHL/BCR-ABL in human K562 cells assessed as induction of BCR-ABL degradation pre-treated with 4 uM VHL1 for 2 hrs followed by compound addition at 100 nM and further incubated for 8 hrs by Western blot analysis; assay type: cell-based
[5] = molecular target: Tyrosine-protein kinase ABL1 (Homo sapiens) (UniProt P00519); assay: Binding affinity to human non-phosphorylated ABL1 (S229 to K512 residues) expressed in mammalian expression system assessed as residual binding level at 10 uM by Kinomescan method relative to control
SUP-B15 = assay: Growth inhibition of human SUP-B15 cells incubated for 2 days by CCK8 assay; assay type: functional, cell-based
[6] = system: von Hippel-Lindau disease tumor suppressor/Tyrosine-protein kinase ABL1/Breakpoint cluster region protein (Homo sapiens), P00519+P11274+P40337 [G250E]; assay: Protac activity against VHL/BCR-ABL G250E mutant (unknown origin) expressed in human U937 cells assessed as induction of BCR-ABL degradation incubated for 16 hrs by Western blot analysis; assay type: cell-based
K562 [7] = assay: Induction of cell death in human K562 cells assessed as reduction in cell viability at 20 times IC50 incubated for 12 hrs followed by drug wash-out and incubation in drug-free medium up to 144 hrs by CCK8 assay; assay type: functional, cell-based
[8] = molecular target: von Hippel-Lindau disease tumor suppressor/Proto-oncogene tyrosine-protein kinase Src (Homo sapiens) (UniProt P12931+P40337); assay: Protac activity against VHL/Src in human K562 cells assessed as reduction in Src protein levels at 1 to 100 nM incubated for 16 hrs by Western blot analysis; assay type: cell-based
[9] = molecular target: T2, von Hippel-Lindau disease tumor suppressor/Tyrosine-protein kinase ABL1/Breakpoint cluster region protein; assay: Protac activity against VHL/BCR-ABL in human K562 cells assessed as reduction in BCR-ABL protein levels at 1 to 100 nM incubated for 16 hrs by Western blot analysis; assay type: cell-based
[10] = molecular target: T2, von Hippel-Lindau disease tumor suppressor/Tyrosine-protein kinase ABL1/Breakpoint cluster region protein; assay: Protac activity against VHL/BCR-ABL in human K562 cells assessed as induction of BCR-ABL degradation pre-treated with 100 nM dasatinib for 2 hrs followed by compound addition at 100 nM and further incubated for 8 hrs by Western blot analysis; assay type: cell-based
[11] = system: von Hippel-Lindau disease tumor suppressor/Tyrosine-protein kinase ABL1/Breakpoint cluster region protein (Homo sapiens), P00519+P11274+P40337 [T315I]; assay: Protac activity against VHL/BCR-ABL T315I mutant (unknown origin) expressed in human U937 cells assessed as induction of BCR-ABL degradation incubated for 16 hrs by Western blot analysis; assay type: cell-based
KU812 cell line = assay: Growth inhibition of human KU812 cells incubated for 2 days by CCK8 assay; assay type: functional, cell-based
[12] = molecular target: von Hippel-Lindau disease tumor suppressor/Ephrin type-B receptor 4 (Homo sapiens) (UniProt P54760+P40337); assay: Protac activity against VHL/EPHB4 in human K562 cells assessed as reduction in EPHB4 protein levels at 1 to 100 nM incubated for 16 hrs by Western blot analysis; assay type: cell-based
[13] = system: von Hippel-Lindau disease tumor suppressor/Tyrosine-protein kinase ABL1/Breakpoint cluster region protein (Homo sapiens), P00519+P11274+P40337 [V299L]; assay: Protac activity against VHL/BCR-ABL V299L mutant (unknown origin) expressed in human U937 cells assessed as induction of BCR-ABL degradation incubated for 16 hrs by Western blot analysis; assay type: cell-based
[14] = molecular target: T2, von Hippel-Lindau disease tumor suppressor/Tyrosine-protein kinase ABL1/Breakpoint cluster region protein; assay: Protac activity against VHL/BCR-ABL (unknown origin) expressed in human U937 cells assessed as induction of BCR-ABL degradation incubated for 16 hrs by Western blot analysis; assay type: cell-based
K562 [15] = assay: Effect on LYN protein level in human K562 cells at 100 nM incubated for 16 hrs by multiplexed tandem mass spectrometry; assay type: ADME, cell-based; conditions: k562, 16 h, 0.1 µM
[16] = molecular target: von Hippel-Lindau disease tumor suppressor/Tyrosine-protein kinase ABL2 (Homo sapiens) (UniProt P42684); assay: Protac activity against VHL/BCR-ABL in human K562 cells assessed as reduction in ABL2 protein levels at 100 nM incubated for 16 hrs by multiplexed tandem mass spectrometry
[17] = molecular target: T1, Bcr/Abl fusion protein (Homo sapiens); assay: Inhibition of BCR-ABL phosphorylation in human KU812 cells at 1 to 30 nM by Western blot analysis; assay type: cell-based
[18] = molecular target: T2, von Hippel-Lindau disease tumor suppressor/Tyrosine-protein kinase ABL1/Breakpoint cluster region protein; assay: Protac activity against VHL/BCR-ABL in human K562 cells assessed as induction of BCR-ABL degradation pre-treated with 2.5 uM proteasome inhibitor MG132 for 2 hrs followed by compound addition at 100 nM and further incubated for 8 hrs by Western blot analysis; assay type: cell-based
[19] = system: von Hippel-Lindau disease tumor suppressor/Tyrosine-protein kinase ABL1/Breakpoint cluster region protein (Homo sapiens), P00519+P11274+P40337 [F317L]; assay: Protac activity against VHL/BCR-ABL F317L mutant (unknown origin) expressed in human U937 cells assessed as induction of BCR-ABL degradation incubated for 16 hrs by Western blot analysis; assay type: cell-based
Mus musculus = assay: Inhibition of BCR-ABL phosphorylation in NOD/SCID mouse xenografted with luciferse expressing human K562 cells at 5 to 15 mg/kg, ip QD for 4 days by Western blotting analysis; assay type: functional, organism-based
HL-60 = assay: Growth inhibition of human HL60 cells incubated for 2 days by CCK8 assay; assay type: functional, cell-based
[20] = molecular target: T1, Bcr/Abl fusion protein (Homo sapiens); assay: Inhibition of BCR-ABL phosphorylation in human K562 cells at 1 to 100 nM by Western blot analysis; assay type: cell-based
[21] = molecular target: von Hippel-Lindau disease tumor suppressor/Tyrosine-protein kinase ABL1 (Homo sapiens) (UniProt P00519+P40337); assay: Protac activity against VHL/c-ABL in human K562 cells assessed as reduction in c-ABL protein levels at 1 to 100 nM incubated for 16 hrs by Western blot analysis; assay type: cell-based
K562 [22] = assay: Effect on BCR-ABL protein levels in human K562 cells at 100 nM up to 24 hrs by Western blot analysis; assay type: ADME, cell-based; conditions: k562, 24 h, 0.1 µM
K562 [23] = assay: Effect on YES protein level in human K562 cells at 100 nM incubated for 16 hrs by multiplexed tandem mass spectrometry; assay type: ADME, cell-based; conditions: k562, 16 h, 0.1 µM
[24] = molecular target: von Hippel-Lindau disease tumor suppressor/Tyrosine-protein kinase ABL2 (Homo sapiens) (UniProt P42684+P40337); assay: Protac activity against VHL/ABL2 in human K562 cells assessed as reduction in ABL2 protein levels at 1 to 100 nM incubated for 16 hrs by Western blot analysis; assay type: cell-based

`Cc1nc(Nc2ncc(C(=O)Nc3c(C)cccc3Cl)s2)cc(N2CCN(C(=O)CCCCCCC(=O)N[C@H](C(=O)N3C[C@H](O)C[C@H]3C(=O)NCc3ccc(-c4scnc4C)cc3)C(C)(C)C)CC2)n1` was tested, and the Activity [1] was “Active”, the inhibition [2] was “Active” and the Activity [3] was “inactive”. The Activity [4] was “inactive”, the Activity [5] was “Active” and the “growth inhibition (GI)” value (SUP-B15) was “Active”. The Activity [6] was “Dose-dependent effect”, the Activity (K562 [7]) was “Active” and the Activity [8] was “Dose-dependent effect”. For the same compound, the Activity [9] was “Dose-dependent effect”, the Activity [10] was “inactive” and the Activity [11] was “inactive”. For the same compound, the “growth inhibition (GI)” value (KU812 cell line) was “Active”, the Activity [12] was “Dose-dependent effect” and the Activity [13] was “Dose-dependent effect”. The Activity [14] was “Dose-dependent effect”, the Activity (K562 [15]) was “Non-Toxic” and the Activity [16] was “Active”. The inhibition [17] was “Active”, the Activity [18] was “inactive” and the Activity [19] was “Dose-dependent effect”. The inhibition (Mus musculus) was “Active”, the “growth inhibition (GI)” value (HL-60) was “inactive” and the inhibition [20] was “Active”. The Activity [21] was “Dose-dependent effect”, the Activity (K562 [22]) was “Non-Toxic” and the Activity (K562 [23]) was “Non-Toxic”. The Activity [24] was “Dose-dependent effect”.
